The values that follow come from ChEMBL document CHEMBL1147182, “Clubbed thiazoles by MAOS: a novel approach to cyclin-dependent kinase 5/p25 inhibitors as a potential treatment for Alzheimer's disease” (Bioorg Med Chem, 2007).

Data set [1] concerns the target Cyclin-dependent kinase 5/CDK5 activator 1 (Homo sapiens, UniProt Q00535). As to the kind of experiment: Inhibition of human cdk5/p25 by SPA. In kind it is protein-complex assay.
The target in data set [2] is Cyclin-dependent kinase 2/cyclin E (Homo sapiens, UniProt P24941). As to the kind of experiment: Inhibition of human cdk2/cyclin E by SPA. In kind it is protein-complex assay.
Data set [3] can be described thus: Cytotoxicity against VeroC1008 cells at 6.25 to 50 ug/ml by neutral red uptake assay. In kind it is cell-based. The note with it: chlorocebus sabaeus, vero.
The species named for a further data set is Homo sapiens. As to the kind of experiment: Selectivity for human cdk5/[…] over human cdk2/cyclin E.

Sequence of Cyclin-dependent kinase 5/CDK5 activator 1 (Q00535 whole entry): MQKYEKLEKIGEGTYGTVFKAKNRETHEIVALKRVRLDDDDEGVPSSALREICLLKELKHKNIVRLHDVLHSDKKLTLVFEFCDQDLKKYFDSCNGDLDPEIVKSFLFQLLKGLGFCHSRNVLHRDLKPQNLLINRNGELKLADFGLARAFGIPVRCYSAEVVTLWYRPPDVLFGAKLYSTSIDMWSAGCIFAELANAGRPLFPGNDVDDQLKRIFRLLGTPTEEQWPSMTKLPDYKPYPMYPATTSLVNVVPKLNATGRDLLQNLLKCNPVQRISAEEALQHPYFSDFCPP
Sequence of Cyclin-dependent kinase 5/CDK5 activator 1 (Q15078 whole entry, further chain): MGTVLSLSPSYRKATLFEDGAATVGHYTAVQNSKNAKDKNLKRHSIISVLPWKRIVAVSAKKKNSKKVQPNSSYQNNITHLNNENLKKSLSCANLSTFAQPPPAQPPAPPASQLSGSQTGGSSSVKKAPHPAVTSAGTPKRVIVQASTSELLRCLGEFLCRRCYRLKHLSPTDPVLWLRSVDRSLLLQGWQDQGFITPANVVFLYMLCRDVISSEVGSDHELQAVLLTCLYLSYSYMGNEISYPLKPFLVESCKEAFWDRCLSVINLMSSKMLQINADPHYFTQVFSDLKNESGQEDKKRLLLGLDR

In the case of `NNC(=O)CSc1nnc(Cc2csc(NC(=O)c3ccccc3)n2)n1NC(=O)c1ccc(Cl)cc1`, the IC50 in data set [1] amounted to 34 nM; in data set [2], 468 nM. For the same molecule, the Activity entry in data set [3] is given as “Non-toxic”. The Ratio IC50 in the data set listed under Homo sapiens was determined as 13.8.

`CC(=O)Nc1nc(Cc2nnc(SCC(=O)N/N=C/c3ccccc3)n2NC(=O)c2ccc(Cl)cc2)cs1`: the IC50 in data set [1] was determined as 30 nM; in data set [2], 512 nM. Moreover, the Activity entry in data set [3] is reported as “Non-toxic”. The Ratio IC50 in the data set listed under Homo sapiens turned out to be 17.

Regarding `CC(=O)Nc1nc(Cc2nnc(SCC#N)n2NC(=O)c2ccc(Cl)cc2)cs1`, the results for the IC50 in data set [1] and in data set [2] were 62 nM and 1140 nM, respectively. Further, the Activity entry in data set [3] was “Non-toxic”. Further, the Ratio IC50 in the data set listed under Homo sapiens worked out at 18.3.

Consider `N#CCSc1nnc(Cc2csc(NC(=O)c3ccccc3)n2)n1NC(=O)c1ccc(Cl)cc1`, for which the IC50 in data set [1] amounted to 64 nM; in data set [2], 1340 nM. In data set [3], the Activity result is reported as “Non-toxic”. The Ratio IC50 in the data set filed under Homo sapiens stood at 21.

As for `CC(=O)Nc1nc(Cc2nnc(SCC(=O)NN)n2NC(=O)c2ccc(Cl)cc2)cs1`, the figures for the IC50 in data set [1] and in data set [2] were 72 nM and 624 nM, respectively. Moreover, in data set [3], the Activity result is on record as “Non-toxic”. Further, in the data set listed under Homo sapiens, the Ratio IC50 came to 8.6.

Consider `NNC(=O)CSc1nnc(Cc2csc(NC(=O)CCl)n2)n1NC(=O)c1ccc(Cl)cc1`, for which the values for the IC50 in data set [1] and in data set [2] were 44 nM and 890 nM, respectively. Further, in data set [3], the Activity result is listed as “Non-toxic”. The Ratio IC50 in the data set filed under Homo sapiens was 20.

Regarding `NNC(=O)CSc1nnc(Cc2csc(NCCC(=O)O)n2)n1NC(=O)c1ccc(Cl)cc1`, the IC50 in data set [1] was found to be 64 nM; in data set [2] it was 6340 nM. In addition, in data set [3], the Activity entry is “Non-toxic”. Besides, the Ratio IC50 in the data set filed under Homo sapiens stood at 99.

Molecule `CC(=O)Nc1nc(Cc2n[nH]c(=S)n2NC(=O)c2ccccc2)cs1` registered an IC50 in data set [1] of 574 nM. In addition, in data set [3], the Activity entry is listed as “Non-toxic”.

Regarding `CC(=O)Nc1nc(Cc2nnc(S)n2N)cs1`, the IC50 is 48 nM in data set [1] and 50 nM in data set [2]. In data set [3], the Activity entry is “Non-toxic”. Besides, the Ratio IC50 in the data set listed under Homo sapiens worked out at 1.

As for `CC(=O)Nn1c(Cc2csc(NCCC(=O)O)n2)nnc1SCC(=O)N/N=C/c1ccccc1`, half-maximal inhibition in data set [1] (IC50) required 635 nM. Besides, the Activity result in data set [3] is “Non-toxic”.

On to `CC(=O)Nc1nc(Cc2nnc(SCC(=O)N/N=C/c3ccccc3)n2NC(C)=O)cs1`, for which half-maximal inhibition in data set [1] (IC50) was put at 463 nM. In addition, in data set [3], the Activity entry is given as “Non-toxic”.

Consider `CC(=O)Nn1c(S)nnc1Cc1csc(NC(=O)c2ccccc2)n1`, for which the IC50 in data set [1] is 614 nM. Besides, the Activity result in data set [3] was “Non-toxic”.

In turn, `O=C(O)CCNc1nc(Cc2nnc(SCC(=O)NNC(=O)CCl)n2NC(=O)c2ccccc2)cs1` came in with an IC50 in data set [1] of 462 nM. Besides, in data set [3], the Activity result is recorded as “Non-toxic”.

Consider `O=C(CSc1nnc(Cc2csc(NC(=O)CCl)n2)n1NC(=O)c1ccc(Cl)cc1)N/N=C/c1ccccc1`, for which the IC50 in data set [1] amounted to 42 nM; in data set [2], 51 nM. The Activity result in data set [3] was “Non-toxic”. In the data set filed under Homo sapiens, the Ratio IC50 was found to be 1.2.

With `O=C(CCl)NNC(=O)CSc1nnc(Cc2csc(NC(=O)c3ccccc3)n2)n1NC(=O)c1ccc(Cl)cc1`, 340 nM corresponded to half-maximal inhibition in data set [1] (IC50). Further, in data set [3], the Activity entry is “Non-toxic”.

As to `O=C(Nc1nc(Cc2n[nH]c(=S)n2NC(=O)c2ccccc2)cs1)c1ccccc1`, in data set [1], the IC50 came out at 894 nM. Besides, the Activity result in data set [3] is “Non-toxic”.

`COC(=O)CSc1nnc(Cc2csc(NCCC(=O)O)n2)n1NC(C)=O`: 746 nM corresponded to half-maximal inhibition in data set [1] (IC50). For the same molecule, in data set [3], the Activity entry was “Non-toxic”.

In data set [1], `CC(=O)NNC(=O)CSc1nnc(Cc2csc(NC(C)=O)n2)n1NC(=O)c1ccc(Cl)cc1` registered an IC50 of 641 nM. Further, the Activity result in data set [3] was “Non-toxic”.

In data set [1], `CC(=O)Nc1nc(Cc2nnc(SCC#N)n2NC(=O)c2ccccc2)cs1` had an IC50 of 395 nM. In addition, in data set [3], the Activity result was “Non-toxic”.

Regarding `CC(=O)Nc1nc(Cc2nnc(SCC(=O)NNC(=O)c3ccccc3)n2NC(=O)c2ccccc2)cs1`, the concentration for half-maximal inhibition (IC50) in data set [1] was determined as 421 nM. In addition, the Activity entry in data set [3] is “Non-toxic”.

Usually IC50 stands for the midpoint of a concentration-inhibition curve. The low end stands for greater potency, the high end for weaker potency.
